According to patent US20160002204A1 (Board of Regents, The University of Texas System, priority 2014, published 2016):
pEC50, pIC50: −log10 of the molar value.

Columns and labels:
A549 cells = assay: A549 proliferation (viability) assay, Cell Titer Fluor, 72 hours; assay type: cell-based; settings: Homo sapiens
Outline: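 A549 cells seeded at 1000 cells/well, left 24 h, then exposed to compound for 72 h at 37 °C, 5% CO2, final DMSO 0.5% (v/v). Viability read by Cell Titer Fluor fluorescence; EC50 from four-parameter logistic fit.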

[1] = target: T1, GLS1 (purified recombinant human GAC) (Homo sapiens, UniProt O94925); assay: GLS1 enzymatic activity assay (dual-coupled, Amplex UltraRed/resorufin); assay type: biochemical
T1 sequence (O94925 55-598 isoform O94925-3 limits assumed): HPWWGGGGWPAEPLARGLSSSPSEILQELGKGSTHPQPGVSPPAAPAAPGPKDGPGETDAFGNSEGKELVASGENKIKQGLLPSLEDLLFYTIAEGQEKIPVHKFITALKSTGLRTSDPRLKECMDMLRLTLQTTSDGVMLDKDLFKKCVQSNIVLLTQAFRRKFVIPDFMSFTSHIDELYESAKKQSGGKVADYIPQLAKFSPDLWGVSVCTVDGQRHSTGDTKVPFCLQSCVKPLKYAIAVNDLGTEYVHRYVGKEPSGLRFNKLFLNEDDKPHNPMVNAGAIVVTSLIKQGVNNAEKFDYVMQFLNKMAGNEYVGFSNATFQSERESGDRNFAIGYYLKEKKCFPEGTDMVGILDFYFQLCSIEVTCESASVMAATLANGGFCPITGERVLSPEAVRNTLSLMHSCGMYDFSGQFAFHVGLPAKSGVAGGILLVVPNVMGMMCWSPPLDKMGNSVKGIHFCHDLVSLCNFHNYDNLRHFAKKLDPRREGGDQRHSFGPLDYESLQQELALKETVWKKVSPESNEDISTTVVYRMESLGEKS
Outline: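 In this coupled fluorometric format, phosphate-activated GAC (2 nM, 50 mM phosphate) is pre-exposed to compound for 10 min before 1 mM glutamine addition. Product is tracked as resorufin (530/590 nm) over time or at 20 min, and potency is derived by logistic fitting.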

| SMILES | pEC50 (A549 cells) | pIC50 [1] |
| --- | --- | --- |
| CC(=O)N1CCN(CC(=O)Nc2ccn(CCC(F)Cn3cc(C(=O)NCc4cccc(OC(F)(F)F)c4)nn3)c(=O)c2)CC1 (stereo not shown) [Example 229, 1-(4-{4-[2-(4-acetylpiperazin-1-yl)acetamido]-2-oxo-1,2-dihydropyridin-1-yl}-2-fluorobutyl)-N-{[3-(trifluoromethoxy)phenyl]methyl}-1H-1,2,3-triazole-4-carboxamide] | 5.30 to 6.30 | 6.30 to 7.00 |
| O=C(CN1CCS(=O)(=O)CC1)Nc1ccn(CCC(F)Cn2cc(C(=O)NCc3cccc(OC(F)(F)F)c3)nn2)c(=O)c1 (stereo not shown) [Example 231, 1-(4-{4-[2-(1,1-dioxo-1$l^6,4-thiomorpholin-4-yl)acetamido]-2-oxo-1,2-dihydropyridin-1-yl}-2-fluorobutyl)-N-{[3-(trifluoromethoxy)phenyl]methyl}-1H-1,2,3-triazole-4-carboxamide] | < 5.30 | 6.30 to 7.00 |
| O=C(CN1CC(F)(F)C1)Nc1ccn(CCC(F)Cn2cc(C(=O)NCc3cccc(OC(F)(F)F)c3)nn2)c(=O)c1 (stereo not shown) [Example 232, 1-(4-{4-[2-(3,3-difluoroazetidin-1-yl)acetamido]-2-oxo-1,2-dihydropyridin-1-yl}-2-fluorobutyl)-N-{[3-(trifluoromethoxy)phenyl]methyl}-1H-1,2,3-triazole-4-carboxamide] | 6.30 to 7.00 | > 7.00 |
| CC(C)(C)OC(=O)Nc1ccn(CCC(F)Cn2cc(C(=O)NCc3cc(Cl)ccc3F)nn2)c(=O)c1 (stereo not shown) [Example 233, tert-butyl N-{1-[4-(4-{[(5-chloro-2-fluorophenyl)methyl]carbamoyl}-1H-1,2,3-triazol-1-yl)-3-fluorobutyl]-2-oxo-1,2-dihydropyridin-4-yl}carbamate] | 5.30 to 6.30 | > 7.00 |
| CC(C)(C)OC(=O)Nc1ccn(CCC(F)Cn2cc(C(=O)NCc3cccc(OC(F)(F)F)c3)nn2)c(=O)c1 (stereo not shown) [Example 234, tert-butyl N-(1-{3-fluoro-4-[4-({[3-(trifluoromethoxy)phenyl]methyl]carbamoyl)-1H-1,2,3-triazol-1-yl]butyl}-2-oxo-1,2-dihydropyridin-4-yl)carbamate] | 6.30 to 7.00 | > 7.00 |
| N#Cc1cccc(CC(=O)Nc2ccn(CCC(F)Cn3cc(C(=O)NCc4cccc(OC(F)(F)F)c4)nn3)c(=O)c2)c1 (stereo not shown) [Example 235, 1-(4-{4-[2-(3-cyanophenyl)acetamido]-2-oxo-1,2-dihydropyridin-1-yl}-2-fluorobutyl)-N-{[3-(trifluoromethoxy)phenyl]methyl}-1H-1,2,3-triazole-4-carboxamide] | 5.30 to 6.30 | > 7.00 |
| O=C(Cc1cccnc1Cl)Nc1ccn(CCC(F)Cn2cc(C(=O)NCc3cccc(OC(F)(F)F)c3)nn2)c(=O)c1 (stereo not shown) [Example 236, 1-(4-{4-[2-(2-chloropyridin-3-yl)acetamido]-2-oxo-1,2-dihydropyridin-1-yl}-2-fluorobutyl)-N-{[3-(trifluoromethoxy)phenyl]methyl}-1H-1,2,3-triazole-4-carboxamide] | 5.30 to 6.30 | > 7.00 |
| O=C(Cc1cccc(N2CCOCC2)c1)Nc1ccn(CCC(F)Cn2cc(C(=O)NCc3cccc(OC(F)(F)F)c3)nn2)c(=O)c1 (stereo not shown) [Example 237, 1-[2-fluoro-4-(4-{2-[3-(morpholin-4-yl)phenyl]acetamido}-2-oxo-1,2-dihydropyridin-1-yl)butyl]-N-{[3-(trifluoromethoxy)phenyl]methyl}-1H-1,2,3-triazole-4-carboxamide] | 6.30 to 7.00 | > 7.00 |
| O=C(Cc1ccc(Cl)nc1)Nc1ccn(CCC(F)Cn2cc(C(=O)NCc3cccc(OC(F)(F)F)c3)nn2)c(=O)c1 (stereo not shown) [Example 238, 1-(4-{4-[2-(6-chloropyridin-3-yl)acetamido]-2-oxo-1,2-dihydropyridin-1-yl}-2-fluorobutyl)-N-{[3-(trifluoromethoxy)phenyl]methyl}-1H-1,2,3-triazole-4-carboxamide] | 6.30 to 7.00 | > 7.00 |
| CC(C)(C)OC(=O)N[C@H]1CC[C@H](CC(=O)Nc2ccn(CCC(F)Cn3cc(C(=O)NCc4cccc(OC(F)(F)F)c4)nn3)c(=O)c2)CC1 (stereo partly shown) [Example 239, tert-butyl N-[(1r,4r)-4-{[(1-{3-fluoro-4-[4-({[3-(trifluoromethoxy)phenyl]methyl}carbamoyl)-1H-1,2,3-triazol-1-yl]butyl}-2-oxo-1,2-dihydropyridin-4-yl)carbamoyl]methyl}cyclo-hexyl]carbamate] | > 7.00 | > 7.00 |
| COc1ccc(CC(=O)Nc2ccn(CCC(F)Cn3cc(C(=O)NCc4cccc(OC(F)(F)F)c4)nn3)c(=O)c2)cn1 (stereo not shown) [Example 240, 1-(2-fluoro-4-{4-[2-(6-methoxypyridin-3-yl)acetamido]-2-oxo-1,2-dihydropyridin-1-yl}butyl)-N-{[3-(trifluoromethoxy)phenyl]methyl}-1H-1,2,3-triazole-4-carboxamide] | 5.30 to 6.30 | > 7.00 |
| CC(C)(C)OC(=O)N[C@H]1CC[C@@H](CC(=O)Nc2ccn(CCC(F)Cn3cc(C(=O)NCc4cccc(OC(F)(F)F)c4)nn3)c(=O)c2)CC1 (stereo partly shown) [Example 241, tert-butyl N-[(1s,4s)-4-{[(1-{3-fluoro-4-[4-({[3-(trifluoromethoxy)phenyl]methyl}carbamoyl)-1H-1,2,3-triazol-1-yl]butyl}-2-oxo-1,2-dihydropyridin-4-yl)carbamoyl]methyl}cyclohexyl]carbamate] | > 7.00 | > 7.00 |
| O=C(CC1CCN(CC(F)F)CC1)Nc1ccn(CCC(F)Cn2cc(C(=O)NCc3cccc(OC(F)(F)F)c3)nn2)c(=O)c1 (stereo not shown) [Example 242, 1-[4-(4-{2-[1-(2,2-difluoroethyl)piperidin-4-yl]acetamido}-2-oxo-1,2-dihydropyridin-1-yl)-2-fluorobutyl]-N-{[3-(trifluoromethoxy)phenyl]methyl}-1H-1,2,3-triazole-4-carboxamide] | 6.30 to 7.00 | > 7.00 |
| O=C(Cc1ncc(Cl)cc1F)Nc1ccn(CCC(F)Cn2cc(C(=O)NCc3cccc(OC(F)(F)F)c3)nn2)c(=O)c1 (stereo not shown) [Example 243, 1-(4-{4-[2-(5-chloro-3-fluoropyridin-2-yl)acetamido]-2-oxo-1,2-dihydropyridin-1-yl}-2-fluorobutyl)-N-{[3-(trifluoromethoxy)phenyl]methyl}-1H-1,2,3-triazole-4-carboxamide] | 6.30 to 7.00 | > 7.00 |
| CC(=O)N1CCC(CC(=O)Nc2ccn(CCC(F)Cn3cc(C(=O)NCc4cccc(OC(F)(F)F)c4)nn3)c(=O)c2)CC1 (stereo not shown) [Example 244, 1-(4-{4-[2-(1-acetylpiperidin-4-yl)acetamido]-2-oxo-1,2-dihydropyridin-1-yl}-2-fluorobutyl)-N-{[3-(trifluoromethoxy)phenyl]methyl}-1H-1,2,3-triazole-4-carboxamide] | 5.30 to 6.30 | > 7.00 |
| CC(C)(C)OC(=O)N1CCCC(CC(=O)Nc2ccn(CCC(F)Cn3cc(C(=O)NCc4cccc(OC(F)(F)F)c4)nn3)c(=O)c2)C1 (stereo not shown) [Example 245, tert-butyl 3-{[(1-{3-fluoro-4-[4-({[3-(trifluoromethoxy)phenyl]methyl}carbamoyl)-1H-1,2,3-triazol-1-yl]butyl}-2-oxo-1,2-dihydropyridin-4-yl)carbamoyl]methyl}piperidine-1-carboxylate] | > 7.00 | > 7.00 |
| O=C(Cc1cccnc1)Nc1ccn(CCC(F)Cn2cc(C(=O)NCc3cccc(OC(F)(F)F)c3)nn2)c(=O)c1 (stereo not shown) [Example 246, 1-(2-fluoro-4-{2-oxo-4-[2-(pyridin-3-yl)acetamido]-1,2-dihydropyridin-1-yl}butyl)-N-{[3-(trifluoromethoxy)phenyl]methyl}-1H-1,2,3-triazole-4-carboxamide] | 5.30 to 6.30 | > 7.00 |
| O=C(Cc1cscn1)Nc1ccn(CCC(F)Cn2cc(C(=O)NCc3cccc(OC(F)(F)F)c3)nn2)c(=O)c1 (stereo not shown) [Example 247, 1-(2-fluoro-4-{2-oxo-4-[2-(1,3-thiazol-4-yl)acetamido]-1,2-dihydropyridin-1-yl}butyl)-N-{[3-(trifluoromethoxy)phenyl]methyl}-1H-1,2,3-triazole-4-carboxamide] | 5.30 to 6.30 | > 7.00 |
| Cc1ccc(CC(=O)Nc2ccn(CCC(F)Cn3cc(C(=O)NCc4cccc(OC(F)(F)F)c4)nn3)c(=O)c2)cn1 (stereo not shown) [Example 248, 1-(2-fluoro-4-{4-[2-(6-methylpyridin-3-yl)acetamido]-2-oxo-1,2-dihydropyridin-1-yl}butyl)-N-{[3-(trifluoromethoxy)phenyl]methyl}-1H-1,2,3-triazole-4-carboxamide] | 5.30 to 6.30 | > 7.00 |
| CC(C)(C)OC(=O)N[C@@H]1CCC[C@@H](C(=O)Nc2ccn(CCC(F)Cn3cc(C(=O)NCc4cccc(OC(F)(F)F)c4)nn3)c(=O)c2)C1 (stereo partly drawn) [Example 249, tert-butyl N-[(1R,3R)-3-[(1-{3-fluoro-4-[4-({[3-(trifluoromethoxy)phenyl]methyl}carbamoyl)-1H-1,2,3-triazol-1-yl]butyl}-2-oxo-1,2-dihydropyridin-4-yl)carbamoyl]cyclohexyl]carbamate] | > 7.00 | > 7.00 |
